From the Deep4Chem optical property database
One block for each compound: values may come before it.

Test: solvent given as SMILES

Compound: CC1=C(Cc2ccccc2)C(C)=[N+]2C1=C(C)c1c(C)c(-c3csc(N4CCOCC4)n3)c(C)n1[B-]2(F)F
emission maximum (in C1CCOC1): 620 nm
emission maximum (in C1COCCO1): 602 nm
emission maximum (in CC#N): 537 nm
emission maximum (in CC(C)O): 543 nm
emission maximum (in CCO): 538 nm
emission maximum (in CCOC(C)=O): 545 nm
emission maximum (in CN(C)C=O): 537 nm
emission maximum (in CO): 539 nm
emission maximum (in CS(C)=O): 548 nm
emission maximum (in Cc1ccccc1): 603 nm
emission maximum (in ClC(Cl)Cl): 607 nm
emission maximum (in ClCCl): 535 nm

Compound: CC1(C)c2cc(/C=C/c3nc(/C=C/c4ccc5c(c4)C(C)(C)c4cc(N(c6ccccc6)c6ccc7ccccc7c6)ccc4-5)nc(/C=C/c4ccc5c(c4)C(C)(C)c4cc(N(c6ccccc6)c6ccc7ccccc7c6)ccc4-5)n3)ccc2-c2ccc(N(c3ccccc3)c3ccc4ccccc4c3)cc21
emission maximum (in C1CCOC1): 440 nm

Compound: Cc1ccc(-n2c(-c3ccccc3N)nc3c4ccccc4c4ccccc4c32)cc1
emission maximum (in Cc1ccccc1): 396 nm

Compound: O=C(c1ccncc1)c1ccc(-n2c3ccccc3c3ccccc32)cc1
emission maximum (in Cc1ccccc1): 440 nm
emission maximum (in c1cc(-c2cccc(-n3c4ccccc4c4ccccc43)c2)cc(-n2c3ccccc3c3ccccc32)c1): 457.34 nm

Compound: CCOc1cc2c(cc1/C=C/C(=C(C#N)C#N)c1ccccc1)c1ccccc1n2CC
emission maximum (in C1CCOC1): 541 nm
emission maximum (in CC#N): 569 nm
emission maximum (in CCO): 575 nm
emission maximum (in CCOC(C)=O): 537 nm
emission maximum (in CN(C)C=O): 573 nm
emission maximum (in CS(C)=O): 575 nm
emission maximum (in Cc1ccccc1): 522 nm
emission maximum (in ClC(Cl)Cl): 550 nm
emission maximum (in ClCCl): 558 nm

Compound: CC[Si](CC)(CC)Oc1cccc(O[Si](CC)(CC)CC)c1-c1c2ccccc2c(-c2c(O[Si](CC)(CC)CC)cccc2O[Si](CC)(CC)CC)c2ccccc12
emission maximum (in C1CCCCC1): 432 nm

Compound: CC[n+]1nc2cc3c4c(c2c2cc(C)ccc21)CCCN4CCC3
emission maximum (in O): 571 nm

Compound: CCC1(CC)c2cc(-c3ccc(-c4ccc5c(c4)C(CC)(CC)c4cc(C(C)(C)C)ccc4-5)cc3)ccc2-c2ccc(C(C)(C)C)cc21
emission maximum (in CO): 383.9 nm

Compound: Fc1c(F)c(F)c([B-]2(c3c(F)c(F)c(F)c(F)c3F)Oc3c(ccc4c5c(ccc34)C=[N+](c3ccccc3)[B-](c3c(F)c(F)c(F)c(F)c3F)(c3c(F)c(F)c(F)c(F)c3F)O5)C=[N+]2c2ccccc2)c(F)c1F
emission maximum (in C1CCOC1): 578 nm
emission maximum (in CC#N): 577 nm
emission maximum (in CC(C)=O): 578 nm
emission maximum (in Cc1ccccc1): 580 nm
emission maximum (in ClCCl): 580 nm

Compound: Cc1ccc2nc(-c3cccc4nc(C)[nH]c(=O)c34)[nH]c2c1
emission maximum (in CN(C)C=O): 431 nm

Compound: CCCCNc1ccc(NCCCC)c2c1C(=O)c1ccccc1C2=O
emission maximum (in C1CCCCC1): 665 nm
emission maximum (in C1COCCO1): 672 nm
emission maximum (in CC(C)=O): 671 nm
emission maximum (in CCCCCCCCCCO): 668 nm
emission maximum (in CCCCCCCO): 661 nm
emission maximum (in CCCCCCO): 670 nm
emission maximum (in CCCCO): 671 nm
emission maximum (in CCO): 674 nm
emission maximum (in CN(C)C=O): 664 nm
emission maximum (in CO): 666 nm
emission maximum (in CS(C)=O): 678 nm
emission maximum (in ClC(Cl)(Cl)Cl): 675 nm
emission maximum (in c1ccccc1): 667 nm

Compound: C[n+]1ccc(-c2cc[n+](C)cc2)cc1
emission maximum (in CC#N): 353 nm

Compound: COc1cccc(/C=C/c2ccccc2)c1
emission maximum (in C1CCCCC1): 358 nm
emission maximum (in CC#N): 359 nm
emission maximum (in CC(C)O): 357 nm
emission maximum (in CCCCOCCCC): 358 nm
emission maximum (in CCOC(C)=O): 358 nm
emission maximum (in CCOCC): 357 nm

Compound: CCCCN(CCCC)c1ccc(C#Cc2cc(C#Cc3ccc(N(CCCC)CCCC)cc3)c(C#Cc3ccc([N+](=O)[O-])cc3)cc2C#Cc2ccc([N+](=O)[O-])cc2)cc1
emission maximum (in ClCCl): 552 nm

Compound: Cc1ccc(-c2cc(-c3ccccc3)c3c(N)nc(N4CCCC4)c(C#N)c3n2)cc1
emission maximum (in CC#N): 528 nm
emission maximum (in CC(C)=O): 524 nm
emission maximum (in CC(C)O): 518 nm
emission maximum (in CO): 527 nm
emission maximum (in ClC(Cl)Cl): 510 nm
emission maximum (in ClCCl): 517 nm
emission maximum (in c1ccccc1): 504 nm

Compound: N#Cc1c(-c2ccc(N(c3ccccc3)c3ccccc3)cc2)c(C#N)c(-c2ccc(N(c3ccccc3)c3ccccc3)cc2)c(C#N)c1-c1ccc(N(c2ccccc2)c2ccccc2)cc1
emission maximum (in O=P(c1ccccc1)(c1ccccc1)c1ccccc1Oc1ccccc1P(=O)(c1ccccc1)c1ccccc1): 533 nm

Compound: CC1=C(c2cccs2)C(C)=[N+]2C1=C(c1ccc(OS(=O)(=O)c3ccc([N+](=O)[O-])cc3[N+](=O)[O-])cc1)c1c(C)c(-c3cccs3)c(C)n1[B-]2(F)F
emission maximum (in CO): 609 nm
emission maximum (in Cc1ccccc1): 608 nm
emission maximum (in ClCCl): 607 nm

Compound: CCOC(=O)c1cc(C(=O)OCC)c2ccc(O)cc2n1
emission maximum (in CCO): 474 nm

Compound: Cc1cc(C)c(B(c2ccc(N(c3ccccc3)c3ccccc3)cc2)c2c(C)cc(C)cc2C)c(C)c1
emission maximum (in Cc1ccccc1): 437 nm

Compound: O=[N+]([O-])c1ccc(NCCN(Cc2c3ccccc3cc3ccccc23)c2ccc([N+](=O)[O-])cc2[N+](=O)[O-])c([N+](=O)[O-])c1
emission maximum (in C1CCCCC1): 419 nm
emission maximum (in C1CCOC1): 416 nm
emission maximum (in CC#N): 389 nm
emission maximum (in CC(C)=O): 388 nm
emission maximum (in CCO): 388 nm
emission maximum (in CN(C)C=O): 409 nm
emission maximum (in CO): 389 nm
emission maximum (in ClC(Cl)Cl): 417 nm

Compound: ClP1(Cl)=NP(Cl)(Cl)=NP(Cl)(Oc2ccc3ccc4cccc5ccc2c3c45)=N1 (configuration not stated)
emission maximum (in ClCCl): 417 nm

Compound: CCCCCCCCCCOc1cc(OCCCCCCCCCC)cc(C2=C3C(/C=C/c4ccc(OC)cc4)=CC(/C=C/c4ccc(OC)cc4)=[N+]3[B-](F)(F)n3c(/C=C/c4ccc(OC)cc4)cc(C=Cc4ccc(OC)cc4)c32)c1
emission maximum (in ClC(Cl)Cl): 710 nm

Compound: CC[N+]1(CC)CN2C(=N1)C(C(=O)O)=Cc1cc(SC)ccc12
emission maximum (in O): 515 nm

Compound: CC(C)(C)c1ccc(C2=C(Br)C3=C(c4ccccc4)c4c(Br)c(-c5ccc(C(C)(C)C)cc5)c(-c5ccc(C(C)(C)C)cc5)n4[B-](F)(F)[N+]3=C2c2ccc(C(C)(C)C)cc2)cc1
emission maximum (in C1CCCCC1): 614 nm
emission maximum (in C1CCOC1): 617 nm
emission maximum (in CC#N): 613 nm
emission maximum (in Cc1ccccc1): 618 nm
emission maximum (in ClCCl): 619 nm

Other lines, results leading:

emission maximum (in C1CCOC1): 516 nm
Compound: FC(F)(F)c1ccc(/C=C2\C=C(c3ccccc3)C=C2c2ccccc2)cc1

emission maximum (in ClCCl): 474 nm
Compound: CC(C)(C)c1ccc2c(c1)c1cc(C(C)(C)C)ccc1n2-c1ccc(C#Cc2ccc(C#Cc3ccc(C=C(C#N)C#N)cc3)cc2)cc1

emission maximum (in C1CCOC1): 534 nm
emission maximum (in CC#N): 647 nm
emission maximum (in ClC(Cl)Cl): 573 nm
emission maximum (in ClCCl): 591 nm
Compound: COc1ccc2cc(-c3ccc([N+](=O)[O-])cc3)ccc2c1

emission maximum (in C1CCOC1): 510 nm
Compound: C(=C\c1cc2ccccc2c2ccccc12)/c1c2ccccc2cc2ccccc12

emission maximum (in ClC(Cl)Cl): 465 nm
Compound: CCCCCCN1C(=O)c2cccc3c(-c4cccs4)ccc(c23)C1=O

emission maximum (in ClCCl): 442 nm
Compound: F[B-]1(F)Oc2ccccc2-c2c3c(c4c([n+]21)CCc1ccccc1-4)CCc1ccccc1-3

emission maximum (in CCCCCC): 471 nm
Compound: COC(=O)c1c(C(=O)OC)c2ccc(-c3ccccc3)nn2c1C

emission maximum (in ClCCl): 478 nm
Compound: O=c1c2cc(C#Cc3ccccc3)ccc2nc2ccc(C#Cc3ccccc3)cn12

emission maximum (in ClC(Cl)Cl): 522 nm
Compound: COc1cc(C=C(C#Cc2ccccc2)C#Cc2ccccc2)c(OC)cc1C=C(C#Cc1ccccc1)C#Cc1ccccc1

emission maximum (in C1CCCCC1): 387 nm
emission maximum (in C1COCCO1): 397 nm
emission maximum (in CC#N): 413 nm
emission maximum (in CC(C)(C)O): 400 nm
emission maximum (in CC(C)O): 403 nm
emission maximum (in CCCCCC): 387 nm
emission maximum (in CCCCO): 401 nm
emission maximum (in CCOC(C)=O): 395 nm
emission maximum (in CN(C)C=O): 417 nm
emission maximum (in CO): 399 nm
emission maximum (in ClCCl): 418 nm
emission maximum (in O): 409 nm
Compound: Cc1ccc(C(=O)/C=C2\C(=O)Nc3ccccc32)cc1C

emission maximum (in ClC(Cl)Cl): 676 nm
Compound: CN1C(=CC2=C([S-])C(=Cc3sc4ccccc4[n+]3C)C2=O)C(C)(C)c2ccccc21

emission maximum (in C1CCOC1): 385 nm
Compound: C1=C(c2ccccc2)C(c2ccccc2)C(c2ccccc2)=C1

emission maximum (in ClCCl): 421 nm
Compound: c1ccc(C2(c3ccccc3)c3ccc4ccc5ccccc5c4c3-c3c2ccc2ccc4ccccc4c32)cc1

emission maximum (in ClC(Cl)Cl): 696 nm
Compound: COc1ccc(N(c2ccc(OC)cc2)c2ccc(-c3ccc(C=C(C#N)C#N)o3)cc2)cc1

emission maximum (in ClCCl): 506 nm
Compound: N#Cc1ccc(-c2cn3cc(-c4ccccc4)c[n+]3[n-]2)cc1

emission maximum (in ClCCl): 470 nm
Compound: Cc1cc2ccccc2c2c1c1ccccc1n2-c1ccc(C#N)cc1

emission maximum (in ClC(Cl)Cl): 386 nm
Compound: O=C1[C@@H]2[C@H](C(=O)N1c1ccc3cc4ccccc4cc3c1)[C@@H]1C=C[C@H]2C1

emission maximum (in CC#N): 768 nm
Compound: CC1=CC(/C=C/c2ccc(N(C)C)cc2)=[N+]2C1=C(c1ccc(I)cc1)c1c(C)cc(/C=C/c3ccc(N(C)C)cc3)n1[B-]2(F)F

emission maximum (in C1CCOC1): 384 nm
emission maximum (in ClCCl): 384 nm
Compound: Cc1ccc(-c2ccc3ccc4cc(C(C)(C)C)cc5ccc2c3c45)cc1

emission maximum (in ClC(Cl)Cl): 683 nm
Compound: COc1ccc(-c2cc3c(o2)=CC2=Cc4cc5oc(-c6ccc(OC)cc6)cc5n4[B-](F)(F)[N+]=32)cc1

emission maximum (in ClCCl): 380 nm
Compound: COc1cccc2cc(C)c3c4ccccc4n(C)c3c12

emission maximum (in C1CCOC1): 443 nm
emission maximum (in CC#N): 457 nm
emission maximum (in CO): 461 nm
emission maximum (in ClCCl): 452 nm
Compound: COc1cc(-c2nc3c4cccnc4c4ncccc4c3[nH]2)c(OC)cc1/C=C/c1nc2ccccc2[nH]1

emission maximum (in C1COCCO1): 405 nm
emission maximum (in CC#N): 413 nm
emission maximum (in CO): 429 nm
emission maximum (in ClCCl): 403 nm
Compound: CNc1ncc2nc(C(=O)OC)n(Cc3ccccc3)c2n1

emission maximum (in C1CCOC1): 520 nm
Compound: C[Si]1(c2ccccc2)C(c2ccc(-n3c4ccccc4c4ccccc43)cc2)=C(c2ccccc2)C(c2ccccc2)=C1c1ccc(-n2c3ccccc3c3ccccc32)cc1

emission maximum (in ClCCl): 649 nm
Compound: CC(C)[Si](C#Cc1c2cc3ccccc3cc2c(C#C[Si](C)(C)C)c2cc3ccccc3cc12)(C(C)C)C(C)C

emission maximum (in C1CCCCC1): 498 nm
emission maximum (in CC#N): 534 nm
emission maximum (in CCO): 541 nm
emission maximum (in c1ccccc1): 520 nm
Compound: CN(C)c1cccc2c1C(=O)c1ccccc1-2

emission maximum (in CCO): 585 nm
emission maximum (in ClCCl): 585 nm
emission maximum (in O): 587 nm
Compound: Oc1c(-c2cccs2)cccc1-c1nc2ccccc2s1
